Measurements from US11072585B2 (PharmAkea, Inc., priority 2015, dated 2021).
Counter-ions that a name gives are not always drawn.

Target: human LOXL2 (Homo sapiens (Human), UniProt Q9Y4K0)
Test: Human LOXL2 amine oxidase activity assay (Amplex Red)
Assay type: biochemical
Details: concentrated conditioned media from CHO cells stably expressing human LOXL2; 2 h at 37° C. with compound; DAP substrate
Description: Example B-1: Human LOXL2 Amine Oxidase Activity Assay
LOXL2 amine oxidase activity is evaluated by measuring Amplex Red fluorescence using 10-20× concentrated conditioned media from CHO cells stably expressing human LOXL2. To assay for amine oxidase activity, 10 μL of the concentrated conditioned media is incubated with 2 μL of test compound in DMSO and 73 μL Assay Buffer (50 mM Borate Buffer, pH8) for 2 h at 37° C. After the 2 h incubation, 5 ul of 10 mM 1,5-Diaminopentane (DAP) diluted in Assay Buffer and 10 μl of Amplex Red Mix (8.5 μl Assay Buffer+0.5 μl of 10 mM Amplex Red+1 μl of 500 U/ml Horseradish Peroxidase) are added and the plate mixed and immediately placed on the FlexStaion for fluorescence measurements. Fluorescence is read in kinetic mode every 2 min for 1 hour at excitation=544 and emission=590. The amine oxidase activity is calculated from the slope of the linear portion of the curve.

Sequence of human LOXL2 (Q9Y4K0 26-774): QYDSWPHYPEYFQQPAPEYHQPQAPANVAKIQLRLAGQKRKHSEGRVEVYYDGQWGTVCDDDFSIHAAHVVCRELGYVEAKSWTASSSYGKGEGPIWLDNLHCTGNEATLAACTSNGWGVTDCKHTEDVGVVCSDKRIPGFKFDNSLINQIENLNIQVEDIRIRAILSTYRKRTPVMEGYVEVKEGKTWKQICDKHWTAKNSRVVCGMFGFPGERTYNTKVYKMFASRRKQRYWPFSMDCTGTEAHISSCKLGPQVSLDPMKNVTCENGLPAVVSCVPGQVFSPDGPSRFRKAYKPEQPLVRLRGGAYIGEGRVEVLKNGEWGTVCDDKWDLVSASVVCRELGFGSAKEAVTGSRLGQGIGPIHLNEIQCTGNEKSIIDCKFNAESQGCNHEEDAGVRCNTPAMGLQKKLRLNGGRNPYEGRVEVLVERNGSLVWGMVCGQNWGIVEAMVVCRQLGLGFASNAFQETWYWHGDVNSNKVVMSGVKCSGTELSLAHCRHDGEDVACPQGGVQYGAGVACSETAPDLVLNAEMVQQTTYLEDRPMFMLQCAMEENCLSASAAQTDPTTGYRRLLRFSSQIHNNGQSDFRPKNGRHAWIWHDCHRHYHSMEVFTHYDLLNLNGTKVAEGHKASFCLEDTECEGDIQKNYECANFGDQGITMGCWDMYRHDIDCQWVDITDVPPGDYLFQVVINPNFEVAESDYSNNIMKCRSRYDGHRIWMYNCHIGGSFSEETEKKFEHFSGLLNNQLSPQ

Row | Compound | IC50 [nM]
1 | Cl.[2H]C([2H])(N)c1cc(Oc2cccc(C(=O)Nc3ccccc3)c2)nc(C(F)(F)F)c1 [Compound 1-8, 3-((4-(Aminomethyl-d2)-6-(trifluoromethyl)pyridin-2-yl)oxy)-N-phenylbenzamide hydrochloride] | < 300
2 | NCc1cc(Oc2cccc(C(=O)NCc3nn[nH]n3)c2)nc(C(F)(F)F)c1 [Compound 1-13, N-((2H-Tetrazol-5-yl)methyl)-3-((4-(aminomethyl)-6-(trifluoromethyl)pyridin-2-yl)oxy)benzamide hydrochloride] | < 300
3 | NCc1cc(Oc2cccc3c2CCC(=O)N3CC(=O)O)nc(C(F)(F)F)c1 [Compound 1-236, 2-(5-((4-(Aminomethyl)-6-(trifluoromethyl)pyridin-2-yl)oxy)-2-oxo-3,4-dihydroquinolin-1(2H)-yl)acetic acid hydrochloride] | > 1000
4 | NCc1cc(Oc2cccc(C(=O)N3CC(n4cccn4)C3)c2)nc(C(F)(F)F)c1 [Compound 1-12, (3-(1H-Pyrazol-1-yl)azetidin-1-yl)(3-((4-(aminomethyl)-6-(trifluoromethyl)pyridin-2-yl)oxy)phenyl)methanone trifluoroacetate] | < 300
5 | Cc1nnc(C(=O)N2CCC[C@H](Oc3cc(CN)cc(C(F)(F)F)n3)C2)o1 [Compound 1-51, (S)-(3-((4-(Aminomethyl)-6-(trifluoromethyl)pyridin-2-yl)oxy)piperidin-1-yl)(5-methyl-1,3,4-oxadiazol-2-yl)methanone trifluoroacetate] | 300 to 1000
6 | NCc1cc(Oc2cccc(C(=O)N3CC[C@@H](F)C3)c2)nc(C(F)(F)F)c1 [Compound 1-212, (R)-(3-((4-(Aminomethyl)-6-(trifluoromethyl)pyridin-2-yl)oxy)phenyl)(3-fluoropyrrolidin-1-yl)methanone hydrochloride] | < 300

Next, values leading:

Row | IC50 [nM] | Compound
7 | < 300 | C#Cc1cccc(NC(=O)c2cccc(Oc3cc(CN)cc(C(F)(F)F)n3)c2)c1 [Compound 1-247, 3-((4-(Aminomethyl)-6-(trifluoromethyl)pyridin-2-yl)oxy)-N-(3-ethynylphenyl)benzamide hydrochloride]
8 | < 300 | CC(C)(O)CNC(=O)c1cccc(Oc2cc(CN)cc(C(F)(F)F)n2)c1 [Compound 1-32, 3-((4-(Aminomethyl)-6-(trifluoromethyl)pyridin-2-yl)oxy)-N-(2-hydroxy-2-methylpropyl)benzamide hydrochloride]
9 | < 300 | NCc1cc(Oc2cccc(C(=O)N[C@@H]3CCC[C@@H]3O)c2)nc(C(F)(F)F)c1 [Compound 1-209, 3-((4-(Aminomethyl)-6-(trifluoromethyl)pyridin-2-yl)oxy)-N-((1R,2S)-2-hydroxycyclopentyl)benzamide hydrochloride]
10 | < 300 | NCc1cc(Oc2cccc(Oc3ccccc3)c2)nc(C(F)(F)F)c1 [Compound 1-3, (2-(3-Phenoxyphenoxy)-6-(trifluoromethyl)pyridin-4-yl)methanamine trifluoroacetate]
11 | < 300 | CCc1ccc(NC(=O)c2cccc(Oc3cc(CN)cc(C(F)(F)F)n3)c2)cc1 [Compound 1-246, 3-((4-(Aminomethyl)-6-(trifluoromethyl)pyridin-2-yl)oxy)-N-(4-ethylphenyl)benzamide hydrochloride]
12 | < 300 | Cn1cc(-n2ccc3c(Oc4cc(CN)cc(C(F)(F)F)n4)cccc32)cn1 [Compound 1-37, (2-((1-(1-Methyl-1H-pyrazol-4-yl)-1H-indol-4-yl)oxy)-6-(trifluoromethyl)pyridin-4-yl) methanamine hydrochloride]
13 | > 1000 | NCc1cc(-n2ccccc2=O)nc(C(F)(F)F)c1 [Compound 1-161, 4′-(Aminomethyl)-6′-(trifluoromethyl)-2H-[1,2′-bipyridin]-2-one hydrochloride]
14 | < 300 | NCc1cc(Oc2cccc(C(=O)NC[C@@H](O)CO)c2)nc(C(F)(F)F)c1 [Compound 1-33, (R)-3-((4-(Aminomethyl)-6-(trifluoromethyl)pyridin-2-yl)oxy)-N-(2,3-dihydroxypropyl)benzamide hydrochloride]
